What was measured:
Assay in all cases: Test D pre-/postemergence controlled growth environment herbicide test
Format in all cases: in vivo
Conditions in all cases: scale 0 to 100
[1] = tested on: foxtail, green (green foxtail, Setaria viridis)
Method in brief: (§1)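 Ratings come from visual comparison with untreated plants on a 0–100 scale, 0 meaning no effect. Test chemicals in surfactant-containing solvent were applied either to soil at planting (silt loam) or over foliage of 2–18 cm plants in peat-based medium, then held 14–21 d in a controlled growth environment.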

[2] = tested on: blackgrass (Alopecurus myosuroides)
Method in brief: as §1

[3] = tested on: chamomile (scentless chamomile, Matricaria inodora)
Method in brief: as §1

[4] = tested on: chickweed (common chickweed, Stellaria media)
Method in brief: as §1

[5] = tested on: radish, wild (wild radish, Raphanus raphanistrum)
Method in brief: as §1

Question: What does the source list for `Cc1cc(=O)n(-c2ccc(F)cc2)nc1Cc1ccnc(C(F)(F)F)c1` [Compound 1, 2-(4-fluorophenyl)-5-methyl-6-[[2-(trifluoromethyl)-4-pyridinyl]methyl]-3(2H)-pyridazinone]?
Answer: Plant response rating ([1]; Postemergence, 31 g ai/ha): 0; Plant response rating ([1]; Postemergence, 62 g ai/ha): 0; Plant response rating ([1]; Postemergence, 125 g ai/ha): 0; Plant response rating ([1]; Postemergence, 250 g ai/ha): 20; Plant response rating ([1]; Postemergence, 500 g ai/ha): 70; Plant response rating ([1]; Preemergence, 31 g ai/ha): 0; Plant response rating ([1]; Preemergence, 62 g ai/ha): 60; Plant response rating ([1]; Preemergence, 125 g ai/ha): 100; Plant response rating ([1]; Preemergence, 250 g ai/ha): 100; Plant response rating ([1]; Preemergence, 500 g ai/ha): 100; Plant response rating ([2]; Postemergence, 31 g ai/ha): 0; Plant response rating ([2]; Postemergence, 62 g ai/ha): 10; Plant response rating ([2]; Postemergence, 125 g ai/ha): 10; Plant response rating ([2]; Postemergence, 250 g ai/ha): 20; Plant response rating ([2]; Postemergence, 500 g ai/ha): 20; Plant response rating ([2]; Preemergence, 31 g ai/ha): 0; Plant response rating ([2]; Preemergence, 62 g ai/ha): 0; Plant response rating ([2]; Preemergence, 125 g ai/ha): 20; Plant response rating ([2]; Preemergence, 250 g ai/ha): 40; Plant response rating ([2]; Preemergence, 500 g ai/ha): 75; Plant response rating ([3]; Postemergence, 31 g ai/ha): 30; Plant response rating ([3]; Postemergence, 62 g ai/ha): 30; Plant response rating ([3]; Postemergence, 125 g ai/ha): 30; Plant response rating ([3]; Postemergence, 250 g ai/ha): 60; Plant response rating ([3]; Postemergence, 500 g ai/ha): 50; Plant response rating ([3]; Preemergence, 125 g ai/ha): 70; Plant response rating ([3]; Preemergence, 250 g ai/ha): 90; Plant response rating ([3]; Preemergence, 500 g ai/ha): 100; Plant response rating ([4]; Postemergence, 31 g ai/ha): 30; Plant response rating ([4]; Postemergence, 62 g ai/ha): 30; Plant response rating ([4]; Postemergence, 125 g ai/ha): 50; Plant response rating ([4]; Postemergence, 250 g ai/ha): 50; Plant response rating ([4]; Postemergence, 500 g ai/ha): 60; Plant response rating ([4]; Preemergence, 31 g ai/ha): 100; Plant response rating ([4]; Preemergence, 62 g ai/ha): 100; Plant response rating ([4]; Preemergence, 125 g ai/ha): 100; Plant response rating ([4]; Preemergence, 250 g ai/ha): 100; Plant response rating ([4]; Preemergence, 500 g ai/ha): 100; Plant response rating ([5]; Postemergence, 31 g ai/ha): 10; Plant response rating ([5]; Postemergence, 62 g ai/ha): 25; Plant response rating ([5]; Postemergence, 125 g ai/ha): 35; Plant response rating ([5]; Postemergence, 250 g ai/ha): 50; Plant response rating ([5]; Postemergence, 500 g ai/ha): 90; Plant response rating ([5]; Preemergence, 62 g ai/ha): 75; Plant response rating ([5]; Preemergence, 125 g ai/ha): 60; Plant response rating ([5]; Preemergence, 250 g ai/ha): 100; Plant response rating ([5]; Preemergence, 500 g ai/ha): 100

Question: Which results are given for `Cc1cc(=O)n(-c2ccc(C(F)(F)F)cc2)nc1Cc1ccnc(C(F)(F)F)c1` [Compound 2, 5-methyl-2-[4-(trifluoromethyl)phenyl]-6-[[2-(trifluoromethyl)-4-pyridinyl]methyl]-3(2H)-pyridazinone]?
Answer: Plant response rating ([1]; Postemergence, 31 g ai/ha): 0; Plant response rating ([1]; Postemergence, 62 g ai/ha): 5; Plant response rating ([1]; Postemergence, 125 g ai/ha): 40; Plant response rating ([1]; Postemergence, 250 g ai/ha): 45; Plant response rating ([1]; Postemergence, 500 g ai/ha): 75; Plant response rating ([1]; Preemergence, 31 g ai/ha): 20; Plant response rating ([1]; Preemergence, 125 g ai/ha): 85; Plant response rating ([1]; Preemergence, 250 g ai/ha): 100; Plant response rating ([1]; Preemergence, 500 g ai/ha): 100; Plant response rating ([2]; Postemergence, 31 g ai/ha): 5; Plant response rating ([2]; Postemergence, 62 g ai/ha): 15; Plant response rating ([2]; Postemergence, 125 g ai/ha): 20; Plant response rating ([2]; Postemergence, 250 g ai/ha): 30; Plant response rating ([2]; Postemergence, 500 g ai/ha): 50; Plant response rating ([2]; Preemergence, 31 g ai/ha): 5; Plant response rating ([2]; Preemergence, 62 g ai/ha): 20; Plant response rating ([2]; Preemergence, 125 g ai/ha): 60; Plant response rating ([2]; Preemergence, 250 g ai/ha): 60; Plant response rating ([2]; Preemergence, 500 g ai/ha): 80; Plant response rating ([3]; Postemergence, 31 g ai/ha): 30; Plant response rating ([3]; Postemergence, 62 g ai/ha): 30; Plant response rating ([3]; Postemergence, 125 g ai/ha): 30; Plant response rating ([3]; Postemergence, 250 g ai/ha): 40; Plant response rating ([3]; Postemergence, 500 g ai/ha): 60; Plant response rating ([3]; Preemergence, 31 g ai/ha): 0; Plant response rating ([3]; Preemergence, 62 g ai/ha): 0; Plant response rating ([3]; Preemergence, 125 g ai/ha): 25; Plant response rating ([3]; Preemergence, 250 g ai/ha): 50; Plant response rating ([3]; Preemergence, 500 g ai/ha): 90; Plant response rating ([4]; Postemergence, 31 g ai/ha): 30; Plant response rating ([4]; Postemergence, 62 g ai/ha): 40; Plant response rating ([4]; Postemergence, 125 g ai/ha): 70; Plant response rating ([4]; Postemergence, 250 g ai/ha): 75; Plant response rating ([4]; Postemergence, 500 g ai/ha): 100; Plant response rating ([4]; Preemergence, 31 g ai/ha): 100; Plant response rating ([4]; Preemergence, 62 g ai/ha): 100; Plant response rating ([4]; Preemergence, 125 g ai/ha): 100; Plant response rating ([4]; Preemergence, 250 g ai/ha): 100; Plant response rating ([4]; Preemergence, 500 g ai/ha): 100; Plant response rating ([5]; Postemergence, 31 g ai/ha): 20; Plant response rating ([5]; Postemergence, 62 g ai/ha): 20; Plant response rating ([5]; Postemergence, 125 g ai/ha): 90; Plant response rating ([5]; Postemergence, 250 g ai/ha): 100; Plant response rating ([5]; Postemergence, 500 g ai/ha): 100; Plant response rating ([5]; Preemergence, 31 g ai/ha): 100; Plant response rating ([5]; Preemergence, 62 g ai/ha): 100; Plant response rating ([5]; Preemergence, 125 g ai/ha): 100; Plant response rating ([5]; Preemergence, 250 g ai/ha): 100; Plant response rating ([5]; Preemergence, 500 g ai/ha): 100

Question: Which results are given for `Cc1cc(=O)n(-c2ccc(F)cc2)nc1Oc1ccnc(C(F)(F)F)c1` [Compound 14, 2-(4-fluorophenyl)-5-methyl-6-[[2-(trifluoromethyl)-4-pyridinyl]oxy]-3 (2H)-pyridazinone]?
Answer: Plant response rating ([1]; Postemergence, 16 g ai/ha): 30; Plant response rating ([1]; Postemergence, 31 g ai/ha): 10; Plant response rating ([1]; Postemergence, 62 g ai/ha): 20; Plant response rating ([1]; Postemergence, 125 g ai/ha): 15; Plant response rating ([1]; Postemergence, 250 g ai/ha): 15; Plant response rating ([1]; Preemergence, 16 g ai/ha): 0; Plant response rating ([1]; Preemergence, 31 g ai/ha): 15; Plant response rating ([1]; Preemergence, 62 g ai/ha): 40; Plant response rating ([1]; Preemergence, 125 g ai/ha): 70; Plant response rating ([1]; Preemergence, 250 g ai/ha): 100; Plant response rating ([2]; Postemergence, 16 g ai/ha): 5; Plant response rating ([2]; Postemergence, 31 g ai/ha): 10; Plant response rating ([2]; Postemergence, 62 g ai/ha): 10; Plant response rating ([2]; Postemergence, 125 g ai/ha): 10; Plant response rating ([2]; Postemergence, 250 g ai/ha): 10; Plant response rating ([2]; Preemergence, 16 g ai/ha): 0; Plant response rating ([2]; Preemergence, 31 g ai/ha): 0; Plant response rating ([2]; Preemergence, 62 g ai/ha): 10; Plant response rating ([2]; Preemergence, 125 g ai/ha): 20; Plant response rating ([2]; Preemergence, 250 g ai/ha): 70; Plant response rating ([3]; Postemergence, 16 g ai/ha): 5; Plant response rating ([3]; Postemergence, 31 g ai/ha): 10; Plant response rating ([3]; Postemergence, 62 g ai/ha): 10; Plant response rating ([3]; Postemergence, 125 g ai/ha): 20; Plant response rating ([3]; Postemergence, 250 g ai/ha): 25; Plant response rating ([3]; Preemergence, 16 g ai/ha): 5; Plant response rating ([3]; Preemergence, 31 g ai/ha): 10; Plant response rating ([3]; Preemergence, 62 g ai/ha): 25; Plant response rating ([3]; Preemergence, 125 g ai/ha): 85; Plant response rating ([3]; Preemergence, 250 g ai/ha): 80; Plant response rating ([4]; Postemergence, 16 g ai/ha): 50; Plant response rating ([4]; Postemergence, 31 g ai/ha): 60; Plant response rating ([4]; Postemergence, 62 g ai/ha): 45; Plant response rating ([4]; Postemergence, 125 g ai/ha): 70; Plant response rating ([4]; Postemergence, 250 g ai/ha): 90; Plant response rating ([4]; Preemergence, 16 g ai/ha): 10; Plant response rating ([4]; Preemergence, 125 g ai/ha): 100; Plant response rating ([4]; Preemergence, 250 g ai/ha): 95; Plant response rating ([5]; Postemergence, 16 g ai/ha): 40; Plant response rating ([5]; Postemergence, 31 g ai/ha): 80; Plant response rating ([5]; Postemergence, 62 g ai/ha): 70; Plant response rating ([5]; Postemergence, 125 g ai/ha): 75; Plant response rating ([5]; Postemergence, 250 g ai/ha): 80; Plant response rating ([5]; Preemergence, 16 g ai/ha): 100; Plant response rating ([5]; Preemergence, 31 g ai/ha): 100; Plant response rating ([5]; Preemergence, 62 g ai/ha): 100; Plant response rating ([5]; Preemergence, 125 g ai/ha): 100; Plant response rating ([5]; Preemergence, 250 g ai/ha): 100
